# Like-named read-outs stand apart in the source and are kept apart here.
# What was measured:
# [1] = system: mucin immobilized to IAM.PC.DD2; experiment: HPLC on MIC column (2:1 mucin to PC IAM particles): retention time, k′MIC, derived Km and Peff MIC; conditions: for Peff MIC (×10^−4 cm/s): determined by linear equation
# Description: [formula] where Dm is the membrane diffusion coefficient of the solute, Km is the membrane equilibrium constant, and L is the membrane thickness (Stein, W., Transport and Diffusion Across Cell Membranes, Academic Press, Orlando, Fla. (1986)). […] Since molecular weight, MW, is proportional to molecular size, Dm may also written as,
# [formula] Thus, Dm can be calculated from the molecular weight. Furthermore, Km is calculated by the following equation, Km−(Vm/Vs)k′, [4] where Vm is the volume of the mobile phase, Vs is the internal volume of the stationary phase, and k′ is the partition ratio (Pidgeon and Ong, Chemtech. June, 38-48 (1995)). The partition ratio is determined by the equation, k′−(tr−to)/to, [5] where tr is the retention time of the drug and to is the void volume of the column. Both tr and to can be experimentally determined in order to obtain k′.
# Equation 2 can be used to determine Km for a given MIC medium. Both Dm and L are known from the discussion above, and Peff can be calculated for various drugs having known in vivo absorption. For example, a number of drug permeability coefficients, Peff, derived from in vivo experiments are listed in literature. […] See Example 5 below.
# [2] = single-pass perfusions, cited from earlier work
# [3] = system: Caco-2; conditions: from literature, cited from earlier work
# [4] = from literature; cited from earlier work
# [5] = system: mucin immobilized to PC IAM particles; experiment: pH and mucin layer thickness dependence of partition ratio on MIC columns (1:2 and 2:1)
# Description: Samples were dissolved in mobile phase solution and filtered (filter pore size, 0.45 μm) prior to injection. […] From this measurement and a measurement of the void volume (t0) the k′MIC could be determined. In addition, from the molecular weight of the compounds, Dm could be determined. These compounds, with the exceptions noted below, were used to generate the column constant (Vm/Vs).
# For these reasons, the influence of pH on drug retention times was measured on columns having two different mucin layer thicknesses, 0.32 μm (column prepared with a 1:2 wt % of mucin to PC IAM particles) and 0.36 μm (column prepared with a 2:1 wt % of mucin to PC IAM particles)(Table 8). […] The influence of pH on drug retention time was measured by using different mobile phase buffers adjusted to pH 3, 5 or 7 on either the 0.32 μm or 0.36 μm column.
# Capacity factors were calculated from drug retention times collected on columns having two different mucin layer thicknesses, 0.32 μm (column prepared with a 1:2 wt % of mucin to PC IAM particles) and 0.36 μm (column prepared with a 2:1 wt % of mucin to PC IAM particles).
# [6] = cited from earlier work
smiles,measurement,setting,value
CC(C)(C)NCC(O)c1cc(O)cc(O)c1 (centres unmarked) [Terbutaline],δ = log k′MIC − log k′IAM,[1],1.14
same,log k′MIC,[1]; MIC 2:1,1.64
same,K′MIC,"[1]; MIC 2:1, Table 5",43
same,K′MIC,"[1]; MIC 2:1, Table 6",43.29
same,k′MIC,"[1]; MIC column 2:1 mucin:IAM, MPS pH 7.4",43.2857
same,Retention Time,"[1]; MIC column 2:1 mucin:IAM, MPS pH 7.4, isocratic 0.3 ml/min",3.1
same,Peff MIC (×10^−4 cm/s),[1]; Table 5,1.21 ×10^−4 cm/s
same,Peff MIC (×10^−4 cm/s),[1]; Table 6,1.21 ×10^−4 cm/s
same,Dm,[1]; membrane diffusion coefficient calculated from molecular weight,0.0036
same,Peff Loc-I-Gut (×10^−4 cm/s),[2]; Table 5,0.3 ×10^−4 cm/s
same,Peff Loc-I-Gut (×10^−4 cm/s),[2]; Table 6,0.3 ×10^−4 cm/s
same,Peff Loc-I-Gut (×10^−4 cm/s),[2]; Table 9,0.3 ×10^−4 cm/s
same,Peff Caco-2 (×10^−6 cm/s),[3]; Table 5,0.47 ×10^−6 cm/s
same,Peff Caco-2 (×10^−6 cm/s),[3]; Table 6,0.47 ×10^−6 cm/s
same,log k′IAM,[4],0.50
same,k′MIC (1:2),"[5]; column 1:2, 0.32 μm, pH 7, Table 9",39
same,(1:2) k′ (pH 3),"[5]; column 1:2 mucin to PC IAM, 0.32 μm mucin layer, mobile phase pH 3",45.67
same,(1:2) k′ (pH 5),"[5]; column 1:2 mucin to PC IAM, 0.32 μm mucin layer, mobile phase pH 5",49.00
same,(1:2) k′ (pH 7),"[5]; column 1:2 mucin to PC IAM, 0.32 μm mucin layer, mobile phase pH 7",39.00
same,k′MIC (2:1),"[5]; column 2:1, 0.36 μm, pH 7, Table 9",35.7
same,(2:1) k′ (pH 3),"[5]; column 2:1 mucin to PC IAM, 0.36 μm mucin layer, mobile phase pH 3",34.71
same,(2:1) k′ (pH 5),"[5]; column 2:1 mucin to PC IAM, 0.36 μm mucin layer, mobile phase pH 5",37.57
same,(2:1) k′ (pH 7),"[5]; column 2:1 mucin to PC IAM, 0.36 μm mucin layer, mobile phase pH 7",35.67
same,% Absorbed,[6]; Table 5,60%
same,% Absorbed,[6]; Table 6,60%
same,% Absorbed,[6]; Table 7,60%
